Experimental findings from article PMC9608075 (Pharmaceutics, 2022) are described below.

The structures appear in SMILES notation.

One data set concerns the target human recombinant GCPII (Homo sapiens, UniProt Q04609). The data set can be described thus: GCPII activity assay (radioactivity-based, NAA-[3H]-G). It counts as biochemical. Conditions: for IC50: human recombinant GCPII. The method, then: Inhibition potencies against GCPII (IC50 values) were determined using previously described methods with minor modifications. Briefly, reactions were carried out in the presence of NAA-[^3H]-G and human recombinant GCPII enzyme in Tris-HCl and CoCl2 at 37 °C for 20 min. Reactions were stopped with ice-cold sodium phosphate buffer containing 1 mM EDTA. Aliquots were then transferred to 96-well spin columns containing AG1X8 ion-exchange resin and centrifuged. NAA-[^3H]-G was bound to the resin and [^3H]-G eluted in the flow-through. Columns were washed with formate to ensure complete elution of [^3H]-G. The flow-through and the washes were collected, and aliquots were transferred and dried to completion in a solid scintillator-coated 96-well plate. The radioactivity corresponding to [^3H]-G was determined with a scintillation counter. Subsequently, IC50 curves were generated from CPM results.
The inhibitory potencies of the catechols were determined using a modified radioactivity-based assay involving human recombinant GCPII enzyme as previously reported. Based on literature reports of catecholic moieties binding to zinc metalloproteases, we tested the potency of L-DOPA (1) against GCPII activity and discovered that it is a submicromolar inhibitor. […] This prompted us to evaluate analogs of L-DOPA (Table 1) to determine the essential structural features responsible for its GCPII inhibitory activity. […] Subsequently, we tested L-DOPA analogs retaining the catechol moiety (compounds 5–10). […] Taken together, these structure–activity relationship (SAR) studies highlight the critical role played by the catechol and carboxylate groups of L-DOPA in GPCII inhibition as well as the insignificant contribution of the alpha amino group.

Data set [1] is described as follows: Metabolic stability in mouse plasma. The format is in vitro ADME. The following applies: 37 °C, 60 min. Here is the method:
(§1) Briefly, brain homogenates were prepared by adding 9X of 0.1 M potassium phosphate buffer to weighed tissue and homogenization using a probe sonicator. Plasma and crude brain homogenate (1 mL each) were spiked with the analyte to give a final concentration of 10 µM and then incubated at 37 °C for 1 h. At predetermined time points (0, 30, and 60 min), an aliquot from each matrix was quenched with 3X volume of acetonitrile containing the internal standard (IS; losartan: 0.5 μM) and vortex-mixed for 30 s. The final mixtures were centrifuged at 10,000× g for 10 min at 4 °C and supernatants were used for LC-MS analyses.
(§2) The samples were analyzed using a Dionex Ultimate 3000 ultra-high-performance LC system coupled with a Q Exactive Focus orbitrap mass spectrometer (Thermo Fisher Scientific Inc., Waltham MA, USA) operated with a heated electrospray ionization (HESI) ion source. […] The mass spectrometer was operated in switching ionization mode to collect both positive and negative molecular ions while being controlled by Xcalibur software 4.0.27.13 (Thermo Scientific). Analytes were quantified and the disappearance of the respective catechols was monitored in the full-scan mode (from m/z 50 to 1600) by comparing samples at the different time-points.

The nature of another data set: in vitro. The format is in vitro ADME. Conditions: mouse, brain homogenate. The method, then:
as §1, §2

Data set [2] is described as follows: Initial two time-point pharmacokinetic study in mice. The format is in vivo, mouse. The following applies: 50 mg/kg PO; for brain levels: at both time points (30 and 60 min); for concentration at 30 min: 30 min post dose. The method, then:
For in vivo PK studies, male CD-1 mice (Harlan Laboratories, Indianapolis, IN, USA) weighing 25-30 g were used. The mice were maintained on a 12 h light-dark cycle with ad libitum access to food and water. […] Brains were dissected and immediately flash frozen (-80 °C). […] Caffeic acid was analyzed underivatized. […] Plasma and brain tissue samples were processed by matching dilutions of the calibration standards. […] Then, 2 μL of the sample was analyzed using LC/MS/MS system. […] Plasma and brain tissue samples were processed by matching the dilutions of calibration standards of the respective tissues. […] The solutions were vortexed for 15 s and then allowed to sit at room temperature for 45 min. These mixtures were vortexed again for 10 s and centrifuged at 10,000× g for 10 min to collect the supernatant. Then, 2 μL of the sample was injected into the LC/MS/MS system for analysis. Chromatographic analysis was performed using a Thermo Scientific Vanquish UPLC system consisting of an analytical pump and an autosampler coupled with a […] spectrometer. […] The mobile phase was delivered as a gradient at a flow rate of 0.400 mL/min. […] The analyte was monitored using a ThermoScientific […] triple-quadrupole mass-spectrometric detector equipped with an electrospray interface, and operated in negative ion mode. The instrument was controlled by Thermo Scientific Xcalibur (version 4.2.47) software.

Data set [3] is described as follows: Metabolite identification (MET-ID) in spiked brain homogenate. It counts as in vitro ADME, mouse. The following applies: 30 min post-spike.
The nature of the next data set: in vivo. The following applies: male, CD-1, mouse. The method, then: All of the formulations were freshly prepared prior to the dosing. […] Brain and plasma collection were carried out as described above. […] Plasma and brain tissue samples were processed by matching the dilutions of calibration standards of the respective tissues. […] The solutions were vortexed for 15 s and then allowed to sit at room temperature for 45 min. These mixtures were vortexed again for 10 s and centrifuged at 10,000× g for 10 min to collect the supernatant. Then, 2 μL of the sample was injected into the LC/MS/MS system for analysis. Chromatographic analysis was performed using a Thermo Scientific Vanquish UPLC system consisting of an analytical pump and an autosampler coupled with a […] spectrometer. […] The mobile phase was delivered as a gradient at a flow rate of 0.400 mL/min. […] The analyte was monitored using a ThermoScientific […] triple-quadrupole mass-spectrometric detector equipped with an electrospray interface, and operated in negative ion mode. The instrument was controlled by Thermo Scientific Xcalibur (version 4.2.47) software.

Another data set deals with T1, GCPII (Mus musculus, UniProt O35409).
T1 construct: from tissue
T1 sequence (O35409 whole entry): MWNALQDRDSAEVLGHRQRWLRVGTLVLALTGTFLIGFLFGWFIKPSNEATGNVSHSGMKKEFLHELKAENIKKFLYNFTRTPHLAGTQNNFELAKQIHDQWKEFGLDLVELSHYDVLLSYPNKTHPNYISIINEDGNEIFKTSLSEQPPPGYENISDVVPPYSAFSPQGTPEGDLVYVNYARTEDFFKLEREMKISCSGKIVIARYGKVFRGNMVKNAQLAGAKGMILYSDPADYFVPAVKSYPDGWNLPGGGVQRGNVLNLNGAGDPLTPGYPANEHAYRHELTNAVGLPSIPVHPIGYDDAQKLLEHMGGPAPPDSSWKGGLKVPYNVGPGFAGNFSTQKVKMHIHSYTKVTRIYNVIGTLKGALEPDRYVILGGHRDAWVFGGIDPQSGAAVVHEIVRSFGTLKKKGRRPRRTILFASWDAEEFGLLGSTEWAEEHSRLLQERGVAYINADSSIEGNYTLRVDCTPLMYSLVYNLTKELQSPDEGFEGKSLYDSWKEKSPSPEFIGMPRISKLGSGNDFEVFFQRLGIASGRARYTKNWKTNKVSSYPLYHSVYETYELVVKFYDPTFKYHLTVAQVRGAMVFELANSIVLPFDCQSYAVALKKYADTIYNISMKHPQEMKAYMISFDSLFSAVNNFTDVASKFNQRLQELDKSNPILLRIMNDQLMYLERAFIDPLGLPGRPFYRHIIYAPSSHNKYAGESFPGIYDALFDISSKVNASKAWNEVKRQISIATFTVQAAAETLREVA
The data set is described as follows: D-DOPA target engagement: ex vivo GCPII activity in mouse brain. The following applies: for brain GCPII activity, effect in words: 30 min.

Where [4] appears, read: male, CD-1, mouse, plasma, read-out: plasma levels.

Sequence of human recombinant GCPII (Q04609 whole entry): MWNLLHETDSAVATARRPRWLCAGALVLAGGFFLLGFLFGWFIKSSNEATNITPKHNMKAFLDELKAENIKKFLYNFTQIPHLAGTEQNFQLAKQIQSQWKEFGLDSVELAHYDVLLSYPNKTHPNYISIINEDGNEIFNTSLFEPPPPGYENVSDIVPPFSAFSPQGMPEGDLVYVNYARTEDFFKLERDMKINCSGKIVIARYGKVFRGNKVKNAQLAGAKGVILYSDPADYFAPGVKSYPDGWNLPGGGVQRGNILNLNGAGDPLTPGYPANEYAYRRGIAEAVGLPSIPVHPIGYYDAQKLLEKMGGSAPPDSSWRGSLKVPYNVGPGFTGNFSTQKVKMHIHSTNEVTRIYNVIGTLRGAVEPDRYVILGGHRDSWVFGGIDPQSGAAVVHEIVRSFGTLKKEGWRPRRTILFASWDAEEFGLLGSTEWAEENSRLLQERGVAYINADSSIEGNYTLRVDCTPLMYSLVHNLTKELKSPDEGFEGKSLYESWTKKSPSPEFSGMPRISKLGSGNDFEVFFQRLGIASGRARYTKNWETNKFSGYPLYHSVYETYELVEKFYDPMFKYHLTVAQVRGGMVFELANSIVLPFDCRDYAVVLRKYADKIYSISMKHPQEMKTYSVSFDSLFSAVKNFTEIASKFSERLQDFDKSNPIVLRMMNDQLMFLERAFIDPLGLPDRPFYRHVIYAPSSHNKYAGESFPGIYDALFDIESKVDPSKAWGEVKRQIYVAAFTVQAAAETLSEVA

In the case of `C[C@](N)(Cc1ccc(O)c(O)c1)C(=O)O` [Compound 5], the IC50 at human recombinant GCPII was over 100 µM.

`O=C(O)/C=C/c1ccc(O)c(O)c1` [Compound 9, Caffeic Acid]: the IC50 at human recombinant GCPII turned out to be 0.3 µM. Besides, the fraction remaining at 1 h, 10 µM in data set [1] was 56%; in the data set “in vitro” it was 98%. In addition, the “plasma levels following oral administration” value in data set [2] (30 and 60 min) fell in the range of 6 to 7 µM. Besides, in data set [2], the brain levels is recorded as under 0.01 nmol/g. Further, in data set [2] (setting [4]), the concentration at 30 min is 6.47 µM.

For the molecule `N[C@@H](Cc1ccc(O)cc1)C(=O)O` [Compound 2, Tyr], on human recombinant GCPII, the IC50 was found to be 100 µM.

Take `NC(Cc1ccc(=O)n(O)c1)C(=O)O` (stereo not shown) [Compound 4]: the half-inhibitory concentration (IC50) on human recombinant GCPII is over 100 µM.

Consider `N[C@H](Cc1ccc(O)c(O)c1)C(=O)O` [Compound 10, D-DOPA], for which the IC50 at human recombinant GCPII came to 0.2 µM. In addition, the amount remaining at 1 h, 10 µM in data set [1] was determined as 100%; in “in vitro”, 82%. The “Dopamine release in spiked brain homogenate” value in data set [3] is “not observed”. For the same molecule, in data set [2], the brain levels is listed as ~ 1 nmol/g. Also, in data set [2] (setting [4]), the concentration at 30 min was 84.3 µM. Also, the concentration at 1 h in data set [2] (male, CD-1, mouse, plasma, one hour post dose, read-out: plasma levels) is 21.5 µM. In the data set “in vivo”, this molecule came in with a bioavailability of 47.7%. Besides, the AUC(0-t) stood at 30.5 µM·h in the data set “in vivo” (iv, 10 mg/kg) and 72.7 µM·h in “in vivo” (po, 50 mg/kg). Moreover, the clearance is 1.68 L/h/kg in “in vivo” (iv, 10 mg/kg, Cl) and 1.68 L/h/kg in “in vivo” (iv, 10 mg/kg, clearance (Cl)). Also, the Cmax in the data set “in vivo” (iv, 10 mg/kg, Cmax) was found to be 61.1 µM; in “in vivo” (po, 50 mg/kg), 1.74 µM; in the data set “in vivo” (po, 50 mg/kg, Cmax), 99 µM. Besides, the time to peak (Tmax) in the data set “in vivo” (iv, 10 mg/kg, Tmax) is 5 min; in “in vivo” (po, 50 mg/kg), 15 min; in “in vivo” (po, 50 mg/kg, Tmax), 30 min. The molecule also gave a half-life in the data set “in vivo” (iv, 10 mg/kg, half-life (t1/2)) of 21 min. Also, the AUCbrain in “in vivo” (po, 50 mg/kg) was 2.42 nmol/g. Also, the Kp in the data set “in vivo” (po, 50 mg/kg, AUCBrain/Plasma ratio (brain penetration index)) was found to be 0.03. In addition, the “brain GCPII activity, effect in words” value at GCPII (PO 50 mg/kg + sodium benzoate IP 400 mg/kg, p < 0.001 vs untreated) is recorded as “significant inhibition”; on GCPII (monotherapy PO 50 mg/kg, p < 0.01 vs untreated) it was “significant inhibition”. The inhibition at 50 mg/kg against GCPII (mouse, po) is about 25%.

For the molecule `CC(=O)N[C@@H](Cc1ccc(O)c(O)c1)C(=O)O` [Compound 6], the IC50 at human recombinant GCPII is 20 µM.

In the case of `N[C@@H](Cc1ccc(O)c(O)c1)C(=O)O` [Compound 1, L-DOPA, reference compound], on human recombinant GCPII, the half-inhibitory concentration (IC50) turned out to be 0.6 µM. In data set [1], this molecule showed a fraction remaining at 1 h, 10 µM of 64%. This molecule also gave an amount remaining at 0.5 h, 10 µM in “in vitro” of 0%. Also, the “Dopamine release in spiked brain homogenate” value in data set [3] is recorded as “observed”. In data set [2], this molecule had a brain levels of under 0.10 nmol/g. In addition, in data set [2] (setting [4]), the concentration at 30 min came out at 3.74 µM.

Regarding `NCCc1ccc(O)c(O)c1` [Compound 7, Dopamine, reference compound], on human recombinant GCPII, the IC50 is over 100 µM.

`O=C(O)CCc1ccc(O)c(O)c1` [Compound 8]: the IC50 at human recombinant GCPII came out at 4 µM. On human recombinant GCPII (versus L-DOPA), the “decrease in inhibitory potency” value was found to be 6.7 fold.
